The target of assay [1] is T1, WRN [UniPro: Q14191 (WRN_HUMAN), N500-C946] (Homo sapiens (Human), UniProt Q14191). As to the kind of experiment: WRN ATPase assay (ADP-Glo). Particulars: WRN enzymatic activity assay. The class given is biochemical. Background: ADP-Glo turns the ADP formed in a reaction into a luminescent signal.
The target of assay [2] is T1, WRN [UniPro: Q14191 (WRN_HUMAN), N500-C946]. As to the kind of experiment: WRN unwinding assay (FORKF DNA, fluorescence). The class given is biochemical. The settings on record: Table 14.

T1 sequence (Q14191 500-946): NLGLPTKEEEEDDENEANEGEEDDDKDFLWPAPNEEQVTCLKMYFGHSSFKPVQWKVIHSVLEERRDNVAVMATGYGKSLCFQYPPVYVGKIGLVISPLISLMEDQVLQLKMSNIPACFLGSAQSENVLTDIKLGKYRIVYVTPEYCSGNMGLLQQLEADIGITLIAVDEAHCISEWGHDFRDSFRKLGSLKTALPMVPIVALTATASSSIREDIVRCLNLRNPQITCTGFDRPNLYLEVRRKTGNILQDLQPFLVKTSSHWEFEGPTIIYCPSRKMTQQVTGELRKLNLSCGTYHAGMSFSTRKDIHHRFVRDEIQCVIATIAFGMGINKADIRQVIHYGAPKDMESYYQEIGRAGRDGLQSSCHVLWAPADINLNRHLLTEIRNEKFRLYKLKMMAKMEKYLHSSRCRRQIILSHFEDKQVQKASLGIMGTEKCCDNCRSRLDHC

In the case of `CCc1c(N2CCN(C(=O)c3cnn4cncc4c3O)CC2)c(=O)n2nc(C3=CCOCC3)nc2n1CC(=O)Nc1ccc(C(F)(F)F)cc1Cl` [Example 201, N-(2-Chloro-4-(trifluoromethyl)phenyl)-2-(2-(3,6-dihydro-2H-pyran-4-yl)-5-ethyl-6-(4-(4-hydroxyimidazo[1,5-b]pyridazine-3-carbonyl)piperazin-1-yl)-7-oxo-[1,2,4]triazolo[1,5-a]pyrimidin-4(7H)-yl)acetamide], the 50% inhibitory concentration (IC50) in assay [1] and in assay [2] was below 100 nM each time.
Turning to `CCc1c(N2CCN(C(=O)CNC(=O)c3ccccc3F)CC2)c(=O)n2nc(N3CCOCC3)cc2n1CC(=O)Nc1ccc(C(F)(F)F)cc1Cl` [Example 344, N-(2-(4-(4-(2-((2-chloro-4-(trifluoromethyl)phenyl)amino)-2-oxoethyl)-5-ethyl-2-morpholino-7-oxo-4,7-dihydropyrazolo[1,5-a]pyrimidin-6-yl)piperazin-1-yl)-2-oxoethyl)-2-fluorobenzamide], the IC50 in assay [1] and in assay [2] was 100 to 1000 nM in each case.
Regarding `CCc1c(N2CCN(C(=O)Nc3[nH]ncc3C(F)(F)F)CC2)c(=O)n2nc(C3=CCOCC3)nc2n1CC(=O)Nc1ccc(C(F)(F)F)cc1Cl` [Example 18, 4-(4-(2-((2-Chloro-4-(trifluoromethyl)phenyl)amino)-2-oxoethyl)-2-(3,6-dihydro-2H-pyran-4-yl)-5-ethyl-7-oxo-4,7-dihydro-[1,2,4]triazolo[1,5-a]pyrimidin-6-yl)-N-(4-(trifluoromethyl)-1H-pyrazol-5-yl)piperazine-1-carboxamide], the IC50 in assay [1] and in assay [2] was 100 to 1000 nM in each case.
As to `CCc1c(N2CCN(C(=O)c3cnc4cc(C)cn4c3O)CC2)c(=O)n2nc(C3=CCOCC3)nc2n1CC(=O)Nc1ccc(C(F)(F)F)cc1Cl` [Example 92, N-(2-Chloro-4-(trifluoromethyl)phenyl)-2-(2-(3,6-dihydro-2H-pyran-4-yl)-5-ethyl-6-(4-(4-hydroxy-7-methylpyrrolo[1,2-a]pyrimidine-3-carbonyl)piperazin-1-yl)-7-oxo-[1,2,4]triazolo[1,5-a]pyrimidin-4(7H)-yl)acetamide], the IC50 in assay [1] and in assay [2] was below 100 nM each time.
`[2H]C([2H])(NC(=O)c1ccccc1F)C(=O)N1CCN(c2c(CC)n(CC(=O)Nc3ccc(C(F)(F)F)cc3Cl)c3nc(N4CCOCC4)nn3c2=O)CC1` [Example 138, N-(2-(4-(4-(2-((2-Chloro-4-(trifluoromethyl)phenyl)amino)-2-oxoethyl)-5-ethyl-2-morpholino-7-oxo-4,7-dihydro-[1,2,4]triazolo[1,5-a]pyrimidin-6-yl)piperazin-1-yl)-2-oxoethyl-1,1-d2)-2-fluorobenzamide]: the IC50 in assay [1] and in assay [2] was below 100 nM in each case.
`CCc1c(N2CCN(C(=O)CNC(=O)c3ccccc3F)CC2)c(=O)n2nc(C3=CCOCC3)nc2n1CC(=O)Nc1cc(C)cs1` [Example 154, N-(2-(4-(2-(3,6-Dihydro-2H-pyran-4-yl)-5-ethyl-4-(2-((4-methylthiophen-2-yl)amino)-2-oxoethyl)-7-oxo-4,7-dihydro-[1,2,4]triazolo[1,5-a]pyrimidin-6-yl)piperazin-1-yl)-2-oxoethyl)-2-fluorobenzamide]: the IC50 in assay [1] and in assay [2] was below 100 nM each time.
As to `CCc1c(N2CCN(C(=O)CNC(=O)c3ccccc3)CC2)c(=O)n2nc(C(C)(C)C)nc2n1CC(=O)Nc1ccc(C(F)(F)F)cc1Cl` [Example 237, N-(2-(4-(2-(Tert-butyl)-4-(2-((2-chloro-4-(trifluoromethyl)phenyl)amino)-2-oxoethyl)-5-ethyl-7-oxo-4,7-dihydro-[1,2,4]triazolo[1,5-a]pyrimidin-6-yl)piperazin-1-yl)-2-oxoethyl)benzamide], the IC50 in assay [1] and in assay [2] was 100 to 1000 nM in each case.

The record behind these values is patent US20260015358A1, “BICYCLIC DERIVATIVES, COMPOSITIONS AND USES THEREOF” (Danatlas Pharmaceuticals Co., Ltd., priority 2023, published 2026).
